Measurements reported in PubChem BioAssay (NCI).
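Method: 48-hour compound exposure of cells in 96-well plates, five concentrations, linear interpolation of endpoints. TGI marks complete inhibition of growth.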

Assays:
Assay in all cases: NCI-60 cell line screen, 48 h
[1] = system: 786-0 renal
[2] = system: A549 NSCLC
[3] = system: ACHN renal
[4] = system: BT-549 breast
[5] = system: CAKI-1 renal
[6] = system: COLO 205 colon
[7] = system: DU-145 prostate
[8] = system: EKVX NSCLC
[9] = system: HCC-2998 colon
[10] = system: HCT-116 colon
[11] = system: HCT-15 colon
[12] = system: HOP-62 NSCLC
[13] = system: HS 578T breast
[14] = system: HT29 colon
[15] = system: IGROV1 ovarian
[16] = system: K-562 leukemia
[17] = system: KM12 colon
[18] = system: LOX IMVI melanoma
[19] = system: M14 melanoma
[20] = system: MALME-3M melanoma
[21] = system: MCF7 breast
[22] = system: MDA-MB-231 breast
[23] = system: MDA-MB-435
[24] = system: MDA-N
[25] = system: MOLT-4 leukemia
[26] = system: NCI-H226 lung
[27] = system: NCI-H23 lung
[28] = system: NCI-H460 lung
[29] = system: NCI/ADR-RES ovarian
[30] = system: OVCAR-3 ovarian
[31] = system: OVCAR-4 ovarian
[32] = system: OVCAR-5 ovarian
[33] = system: OVCAR-8 ovarian
[34] = system: PC-3 prostate
[35] = system: RPMI-8226 leukemia
[36] = system: SF-268 CNS
[37] = system: SF-295 CNS
[38] = system: SF-539 CNS
[39] = system: SK-MEL-2 melanoma
[40] = system: SK-MEL-28 melanoma
[41] = system: SK-MEL-5 melanoma
[42] = system: SK-OV-3 ovarian
[43] = system: SN12C renal
[44] = system: SNB-19 CNS
[45] = system: SNB-75 CNS
[46] = system: SR leukemia
[47] = system: SW-620 colon
[48] = system: T-47D breast
[49] = system: TK-10 renal
[50] = system: U251 CNS
[51] = system: UACC-257 melanoma
[52] = system: UACC-62 melanoma
[53] = system: UO-31 renal
[54] = system: CCRF-CEM leukemia
[55] = system: HL-60(TB) leukemia
[56] = system: HOP-92 NSCLC
[57] = system: NCI-H522 lung
[58] = system: RXF 393 renal
[59] = system: A498 renal

Measured: TGI

C[n+]1c2ccccc2c(C(=O)Nc2ccc(S(=O)(=O)Nc3ccnn3-c3ccccc3)cc2)c2ccccc21
not listed: [54] | [55] | [56] | [57] | [58] | [59]
> 100 µM: all other assays above

CCCCCCCCCCC(C(=O)O)C1(C(=O)O)CCC(=O)O1 (stereo unspecified)
not listed: [20] | [38] | [41] | [59]
> 100 µM: all other assays above

CS(=O)(=O)N1CC(CCl)c2ccc([N+](=O)[O-])cc21 (stereo unspecified)
not listed: [45]
> 100 µM: all other assays above
